These results are taken from patent US7956188B2, “Acetamide compounds as fungicides” (Syngenta Crop Protection, Inc., priority 2004, dated 2011).

With `CSC(Oc1cc(C)c(Br)c(C)c1)C(=O)NC(C)(C)C` (stereo not drawn) [12 (15), 2-(4-bromo-3,5-dimethylphenoxy)-2-methylthio-N-(2-methyl-prop-2-yl)acetamide], the melting point (as a rule, the temperature of the solid-liquid transition) is 123 to 125 °C.
`CSC(Oc1cc(Cl)c2ncc(Br)cc2c1)C(=O)NC(C)(C)C` (stereo not drawn) [12 (62), 2-(3-bromo-8-chloro-quinolin-6-yloxy)-N-tert-butyl-2-methylsulfanyl-acetamide] registered a melting point of 160 to 161 °C.
In the case of `CSC(Oc1cc(I)c2ncc(Br)cc2c1)C(=O)NC(C)(C)C` (stereo not drawn) [12 (62A), 2-(3-bromo-8-iodo-quinolin-6-yloxy)-N-tert-butyl-2-methylsulfanyl-acetamide], the melting point fell in the range of 171 to 172 °C.
